Measured values published in the supplement of paper PMC10307832.

Legend:
Test in all cases: relative viability (nuclei count vs DMSO), 5 days (fraction); higher = more cells survive
[1] = compound: CCC1=CN=CN=C1N2CCN(CC2)CC3=NC4=C(N3)C=C(C=C4)C(F)(F)F + C[C@]1(O)C[C@@H](c2nc(-c3ccc4ccc(-c5ccccc5)nc4c3)c3c(N)nccn32)C1 [Linsitinib] (partner 1 µM)
Procedure, shortened: (§1)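 Relative viability was taken as the ratio of nuclei in treated wells to nuclei in vehicle wells. Lung cancer cell lines in 1536-well plates received compounds by pin tool one day after seeding, either one drug alone or a fixed anchor-drug dose plus five library-drug doses (not always all listed) in √10 steps. Nuclei were counted on 4× images after 5 days of treatment, and values are medians of duplicate plates.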

[2] = compound: CCC1=CN=CN=C1N2CCN(CC2)CC3=NC4=C(N3)C=C(C=C4)C(F)(F)F + C[C@@H](Oc1cc(-c2cnn(C3CCNCC3)c2)cnc1N)c1c(Cl)ccc(F)c1Cl [Crizotinib] (partner 1 µM)
Procedure, shortened: as §1

[3] = compound: N=C1NC(=O)/C(=C/c2ccc(O)cc2)S1 [Mirin] + CC(C)C[C@H](NC(=O)[C@H](Cc1ccccc1)NC(=O)c1cnccn1)B(O)O [Bortezomib] (partner 0.002 µM)
Procedure, shortened: as §1

[4] = compound: CCC1=CN=CN=C1N2CCN(CC2)CC3=NC4=C(N3)C=C(C=C4)C(F)(F)F + Nc1ncn([C@H]2C[C@H](O)[C@@H](CO)O2)c(=O)n1 [Decitabine] (partner 2 µM)
Procedure, shortened: as §1

Cell Line | relative viability ([1]; first compound 0.04 µM) | relative viability ([1]; first compound 0.1265 µM) | relative viability ([1]; first compound 0.4 µM) | relative viability ([1]; first compound 1.265 µM) | relative viability ([1]; first compound 4 µM) | relative viability ([2]; first compound 0.04 µM) | relative viability ([2]; first compound 0.1265 µM) | relative viability ([2]; first compound 0.4 µM) | relative viability ([2]; first compound 1.265 µM) | relative viability ([2]; first compound 4 µM) | relative viability ([3]; first compound 0.25 µM) | relative viability ([3]; first compound 0.7906 µM) | relative viability ([3]; first compound 2.5 µM) | relative viability ([3]; first compound 7.906 µM) | relative viability ([3]; first compound 25 µM) | relative viability ([4]; first compound 0.1265 µM) | relative viability ([4]; first compound 0.4 µM) | relative viability ([4]; first compound 1.265 µM) | relative viability ([4]; first compound 4 µM) | relative viability ([4]; first compound 0.04 µM)
PC-3 [JPC-3] | 0.972 | 0.882 | 0.969 | 0.906 | 0.911 | 0.989 | 0.919 | 0.948 | 0.92 | 0.934 | 0.768 | 0.889 | 0.841 | 0.941 | 0.967 | 0.779 | 0.706 | 0.771 | 0.835 | 
PC-14 | 0.918 | 0.896 | 0.965 | 0.931 | 0.982 | 1.02 | 0.781 | 0.976 | 0.915 | 1.06 | 0.895 | 0.852 | 0.894 | 1.06 | 1.04 | 0.159 | 0.22 | 0.205 | 0.228 | 0.209
RERF-LC-KJ | 0.814 | 0.827 | 0.849 | 0.84 | 0.772 | 0.761 | 0.729 | 0.881 | 0.913 | 0.982 | 1.22 | 1.25 | 1.07 | 1.18 | 1.2 | 0.627 | 0.745 | 0.577 | 0.611 | 0.638
SK-LU-1 | 1.28 | 1.24 | 1.32 | 1 | 1.06 | 1 | 1.1 | 0.99 | 1.06 | 1.02 | 1.22 | 1.22 | 1.19 |  | 1.15 | 0.6 | 0.623 | 0.605 | 0.614 | 0.512
SW 1573 | 0.574 | 0.683 | 0.862 | 0.777 | 0.866 | 0.81 | 0.833 | 0.968 | 0.834 | 0.922 | 1.01 | 1.06 | 1.14 | 0.95 | 0.855 | 0.425 | 0.57 | 0.378 | 0.478 | 0.471
